Data published in patent publication US20250236595A1 (priority 2020, published 2025).

Experiments:
[1] = cited from earlier work
[2] = system: D-galactose-induced aging model; assay: D-galactose-induced aging model, ovarian decline: estradiol and luteinizing hormone in serum (ELISA); assay type: in vivo, BALB/c female mice; conditions: female mice, D-galactose 200 mg/kg/d*42d; SPAM1 10 or 100 μmol/kg/d*28d i.p. from day 15; high dose more significant than low
Protocol: (§1) A D-galactose-induced aging model was used. Forty BALB/c female mice (SPF grade, 8-10 weeks old, weighing 22-27 g) were randomly divided into following 4 groups, with 10 mice in each group: 1) aging model group, injected with D-galactose (200 mg/kg/d*42d) subcutaneously at the neck or back; 2) SPAM1 low-dose treatment group, injected with D-galactose as in group 1), and injected with low-dose SPAM1 (10 μmol/kg/d*28d) intraperitoneally on day 15; 3) SPAM1 high-dose treatment group, injected with D-galactose as in group 1), and injected with high-dose SPAM1 (100 μmol/kg/d*28d) intraperitoneally on day 15; and 4) normal control group, injected with normal saline intraperitoneally instead of D-galactose and SPAM1; 24 h after the completion of all injections, blood was collected from the orbit, and the level of estradiol and luteinizing hormone in serum was assayed by the enzyme-linked immunosorbent assay (ELISA).

[3] = system: D-galactose-induced aging model; assay: D-galactose-induced aging model, testicular decline: testosterone in serum (ELISA); assay type: in vivo, BALB/c male mice; conditions: male mice, D-galactose 200 mg/kg/d*42d; SPAM1 10 or 100 μmol/kg/d*28d i.p. from day 15; high dose more significant than low
Protocol: as §1, with “male” for “female”, “after” for “after the completion of”, “testosterone” for “estradiol and luteinizing hormone”

corticosterone = assay: Level of corticosterone (COR) in serum of mice after intraperitoneal injection (ELISA); assay type: in vivo, BALb/c mice; conditions: SPAM1 10, 100 and 1000 μmol/kg intraperitoneal; blood 1 h after injection; vs normal saline control
Protocol: Forty BALb/c mice (SPF grade, 8-10 weeks old, weighing 22-27 g, half female and half male) were randomly divided into following […], with 10 mice in each group: 1) SPAM1 low-dose group, intraperitoneal injection, 10 μmol/kg; 2) SPAM1 medium-dose group, intraperitoneal injection, 100 μmol/kg; 3) SPAM1 high-dose group, intraperitoneal injection, 1000 μmol/kg; 4) normal control group, injected with normal saline intraperitoneally; 1 h after the injection, blood was collected from the orbit, and the level of COR in serum was measured by the solid phase sandwich enzyme-linked immunosorbent assay (ELISA).

PAC1-R [4] = assay: PAC1-R expression in SHSY-5Y cells, confocal immunofluorescence; assay type: cell-based, Human; conditions: 100 μM SPAM1, incubated 1 h
Protocol: Human nerve cells SHSY-5Y naturally expressing the PAC1-R were cultured until the fusion rate was more than 80%, added with 100 μM SPAM1, and observed by confocal immunofluorescence after being incubated for 1 h.

PAC1-R [5] = assay: PAC1-R expression in Neuro2a cells, western blot with anti-PAC1-R (C-terminal) antibody; assay type: cell-based, Mouse; conditions: SPAM1 at 1 μM, 10 μM and 100 μM, incubated 1 h
Protocol: Mouse nerve cells Neuro2a naturally expressing the PAC1-R were cultured until the fusion rate was more than 80%, added with SPAM1 at 1 μM, 10 μM and 100 μM, and disrupted after being incubated for 1 h. The supernatant of the whole cell lysate was subjected to SDS-PAGE and the western blot assay using the anti-PAC1-R (C-terminal) antibody.

PACAP = assay: Level of PACAP in serum of mice after intraperitoneal injection (ELISA kit); assay type: in vivo, BALb/c mice; conditions: SPAM1 10 and 100 μmol/kg intraperitoneal; blood 30 min after injection; vs normal saline control
Protocol: Thirty BALb/c mice (SPF grade, 8-10 weeks old, weighing 22-27 g, half female and half male) were randomly divided into following […], with 10 mice in each group: 1) SPAM1 low-dose group, intraperitoneal injection, 10 μmol/kg; 2) SPAM1 high-dose group, intraperitoneal injection, 100 μmol/kg; 3) normal control group, injected with normal saline intraperitoneally; 30 min after the injection, blood was collected from the orbit, and serum was assayed for PACAP using an ELISA kit.

[6] = system: dexamethasone-induced thymus decline model; assay: Dexamethasone-induced thymus decline model, thymus index; assay type: in vivo, BALB/c mice; conditions: dexamethasone 25 mg/kg/d*2d i.p.; SPAM1 10 or 100 μmol/kg/d*2d i.p. at the same time
Protocol: A dexamethasone-induced thymus decline model was used. Forty BALB/c mice (SPF grade, half male and half female, 8-10 weeks old, weighing 22-27 g) were randomly divided into following 4 groups, with 10 mice in each group: 1) aging model group, injected with dexamethasone (25 mg/kg/d*2d) intraperitoneally; 2) SPAM1 low-dose treatment group, injected with dexamethasone as in group 1), and injected with SPAM1 at a low dose (10 μmol/kg/d*2d) intraperitoneally at the same time; 3) SPAM1 high-dose treatment group, injected with dexamethasone as in group 1), and injected with SPAM1 at a high dose (100 μmol/kg/d*2d) intraperitoneally at the same time; and 4) normal control group, injected with normal saline intraperitoneally instead of dexamethasone and SPAM1; 24 h after the completion of the final injection, the mice were weighed and sacrificed by cervical dislocation method, the thymus of the mice was weighed, and the thymus index was calculated according to: thymus index=thymus weight (mg)/body weight (g).

LPS-induced sepsis model = assay: LPS-induced sepsis model, survival; assay type: in vivo, BALB/c mice; conditions: SPAM1 10 or 100 μmol/kg i.p. 30 min before 15 mg/kg LPS at the tail vein; survival recorded for 8 days
Protocol: An LPS-induced sepsis model was used. Forty BALB/c mice (SPF grade, half male and half female, 8-10 weeks old, weighing 22-27 g) were randomly divided into following 4 groups, with 10 mice in each group: 1) sepsis model group, injected with normal saline intraperitoneally, and 30 min later, injected with 15 mg/kg LPS at the tail vein; 2) SPAM1 low-dose treatment group, injected with low-dose SPAM1 (10 μmol/kg) intraperitoneally, and 30 min later, injected with 15 mg/kg LPS at the tail vein; 3) SPAM1 high-dose treatment group, injected with high-dose SPAM1 (100 μmol/kg) intraperitoneally, and 30 min later, injected with 15 mg/kg LPS at the tail vein; and 4) normal control group, injected with normal saline intraperitoneally, and 30 min later, injected with normal saline at the tail vein; the survival of mice was observed every 24 h, and the survival rate of each group was recorded for 8 days.

Row | Compound | in vivo half-life [1] | level of estradiol in serum of aging mice [2] | level of luteinizing hormone in serum of aging mice [2] | level of testosterone in serum of aging mice [3] | level of COR in serum (corticosterone) | red fluorescent signal targeting PAC1-R in SHSY-5Y cells (PAC1-R [4]) | expression of PAC1-R in nerve cells Neuro2a (western blot) (PAC1-R [5]) | level of PACAP in serum (PACAP) | thymus index (thymus weight (mg)/body weight (g)) [6] | death rate / survival rate in LPS-induced sepsis (LPS-induced sepsis model)
1 | PACAP38 | less than 2 min |  |  |  |  |  |  |  |  | 
2 | O=C(CCCc1nc2ccccc2c(=O)[nH]1)NCc1ccc(C(=O)O)cc1 |  | effectively up-regulated | effectively up-regulated | effectively up-regulated | increased the level of COR in a concentration-dependent manner | significantly up-regulated | up-regulated the expression of PAC1-R in nerve cells in a concentration-dependent manner | effectively up-regulated the level of PACAP in serum and the up-regulation was concentration-dependent | effectively inhibited the dexamethasone-induced down-regulation of thymus index | effectively inhibited death caused by LPS-induced sepsis
